Where two headings read alike, the source gives them in different places.
Biological target: T1, Mouse TMEM16A (Mus musculus, UniProt Q8BHY3)
T1 construct: expressed in transfected cells; host or cells: HEK-293T
T1 sequence (Q8BHY3 1-960): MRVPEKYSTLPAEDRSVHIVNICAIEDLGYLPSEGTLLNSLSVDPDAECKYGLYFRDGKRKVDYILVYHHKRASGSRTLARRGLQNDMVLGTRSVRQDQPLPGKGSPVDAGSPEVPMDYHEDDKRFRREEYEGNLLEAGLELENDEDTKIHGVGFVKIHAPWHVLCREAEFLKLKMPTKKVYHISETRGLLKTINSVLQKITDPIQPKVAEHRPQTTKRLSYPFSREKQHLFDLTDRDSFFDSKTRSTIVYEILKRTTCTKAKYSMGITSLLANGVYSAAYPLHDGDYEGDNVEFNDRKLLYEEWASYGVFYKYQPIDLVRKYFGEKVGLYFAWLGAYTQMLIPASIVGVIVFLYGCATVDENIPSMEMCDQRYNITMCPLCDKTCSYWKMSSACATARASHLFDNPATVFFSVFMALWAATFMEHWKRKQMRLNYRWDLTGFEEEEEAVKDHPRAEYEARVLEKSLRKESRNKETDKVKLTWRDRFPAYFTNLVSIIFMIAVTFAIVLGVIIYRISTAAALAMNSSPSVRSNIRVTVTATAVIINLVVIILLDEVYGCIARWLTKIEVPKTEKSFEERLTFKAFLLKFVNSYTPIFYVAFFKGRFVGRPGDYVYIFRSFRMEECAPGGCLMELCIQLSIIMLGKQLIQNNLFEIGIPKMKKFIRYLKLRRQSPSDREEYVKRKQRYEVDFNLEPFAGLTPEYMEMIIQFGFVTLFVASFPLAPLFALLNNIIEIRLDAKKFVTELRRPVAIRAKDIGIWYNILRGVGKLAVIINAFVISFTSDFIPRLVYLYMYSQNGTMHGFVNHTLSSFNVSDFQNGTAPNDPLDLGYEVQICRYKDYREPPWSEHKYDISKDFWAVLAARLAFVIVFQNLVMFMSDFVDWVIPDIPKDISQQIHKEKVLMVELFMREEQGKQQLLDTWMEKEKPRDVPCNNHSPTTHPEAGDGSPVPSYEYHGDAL
Test: Whole-cell [A9C]ext-inhibition relationship (Hill and Woodhull fits), 12.5 μM [Ca2+]i
Format: cell-based
Experimental: Mouse TMEM16A (GenBank NM_178642) subcloned into pcDNA3.1 vector was used in this study (Alexander et al., 2013). HEK‐293T cells were cultured as previously described (Smith et al., 2013) and transfected with 0.5–1 μg of TMEM16A and 0.1 μg of CD8 constructs using Fugene HD (Promega, Madison, WI, USA) according to the manufacturer's instructions. Cells were used ~12–36 h after transfection. Transfected cells were visualized using the anti‐CD8 antibody‐coated beads method (Jurman et al., 1994).
The intracellular solution contained (mM) 130 CsCl, 10 EGTA, 1 MgCl2, 10 HEPES and 8 CaCl2 to obtain ~300 nM of [Ca^2+]i; pH was adjusted to 7.3 with NaOH. The intracellular solutions containing ~600 nM, ~1000 nM and ~12.5 μM [Ca^2+]i were obtained by replacing EGTA with equimolar H‐EDTA and by adding 2.1, 3.1 and 7.8 mM CaCl2 respectively. The extracellular solution contained (mM) 150 NaCl, 1 CaCl2, 1 MgCl2, 10 glucose, 10 D‐mannitol and 10 HEPES; pH was adjusted to 7.4 with NaOH. […] A9C was dissolved in DMSO (stock concentration, 300 mM); thus, the final concentration of DMSO was ≤1%. Aliquots of the stock solution were kept at −20° and used within 5 days.
The relationship between [A9C] and TMEM16A current inhibition was obtained by measuring the currents at the end of 250 ms V m steps from +20 to +120 mV in 20 mV increments elicited every 2 s from a holding V m of −70 mV. TMEM16A currents measured in the presence of A9C (I b) were normalized to currents measured in the absence of A9C (I 0) and plotted against [A9C]. The concentration–response curves obtained were fit with the Hill equation of the form: (1) Ib/Io=1/1+A9C/Ki^γ,
where K i is the apparent A9C dissociation constant from the inhibitory site and γ is the coefficient of cooperativity (Hill coefficient).
The relationships between the K i or K d and V m were fitted with the Woodhull equation (Woodhull, 1973): (3) Kx=Kx0exp−δxzFVm/RT.
The subscript ‘x’ stands for either ‘i’ or ‘d’. Thus, K i(0) or K d(0) are the apparent A9C dissociation constants from the inhibitory or activating site at 0 mV, z is the A9C electric valence (−1), δ i or δ d is the fraction of the V m sensed by A9C when bound to the inhibitory or activating site, F is Faraday's constant, R is the universal gas constant and T is the absolute temperature.
To investigate the precise mechanism by which extracellular A9C inhibits TMEM16A channels, macroscopic whole‐cell currents were recorded in the presence of 12.5 μM [Ca^2+]i and in response to 250 ms steps to various V m test pulse from a holding V m of −70 mV. The negative holding V m was used to prevent channel block before the test pulse was elicited. […] The time‐course of this decrease was described by a single‐exponential function characterized by a time constant τ B. The extent of the decrease in current was measured for various [A9C]ext and various V m test pulse and then plotted relative to the current measured in the absence of A9C (I 0) (Figure 3B). The γ values were close to 1 at each V m. In contrast, K i decreased as the V m was increased (Figure 3C). […] Thus, A9C appeared to block TMEM16A channels according to a Woodhull mechanism, consistent with a single A9C molecule blocking the channel pore.

Ki (12.5 μM [Ca2+]i (rounded in Discussion), read-out: K i(0)): ~300 µM
δ i (fraction of Vm sensed at inhibitory site, Woodhull fit) (12.5 μM [Ca2+]i, extracellular A9C): 0.62 ± 0.03
Ki (12.5 μM [Ca2+]i, extracellular A9C, read-out: K i(0) (apparent dissociation constant from inhibitory site at 0 mV)): 322 ± 13 µM
Ki (+80 mV, mouse TMEM16A (rounded in Discussion), read-out: K i): ~50 µM
γ (slope factor, inhibition) (V m 20, 12.5 μM [Ca2+]i): 0.86 ± 0.14 (n = 8)
Ki (V m 20, 12.5 μM [Ca2+]i, [A9C]ext, unit inferred, read-out: K i (Hill fit of inhibition)): 198 ± 47 µM
γ (slope factor, inhibition) (V m 40, 12.5 μM [Ca2+]i): 0.85 ± 0.15 (n = 8)
Ki (V m 40, 12.5 μM [Ca2+]i, [A9C]ext, unit inferred, read-out: K i (Hill fit of inhibition)): 113 ± 26 µM
γ (slope factor, inhibition) (V m 60, 12.5 μM [Ca2+]i): 0.8 ± 0.2 (n = 8)
Ki (V m 60, 12.5 μM [Ca2+]i, [A9C]ext, unit inferred, read-out: K i (Hill fit of inhibition)): 68 ± 20 µM
γ (slope factor, inhibition) (V m 80, 12.5 μM [Ca2+]i): 0.8 ± 0.17 (n = 8)
Ki (V m 80, 12.5 μM [Ca2+]i, [A9C]ext, unit inferred, read-out: K i (Hill fit of inhibition)): 44 ± 10 µM
γ (slope factor, inhibition) (V m 100, 12.5 μM [Ca2+]i): 0.8 ± 0.23 (n = 8)
Ki (V m 100, 12.5 μM [Ca2+]i, [A9C]ext, unit inferred, read-out: K i (Hill fit of inhibition)): 31 ± 12 µM
γ (slope factor, inhibition) (V m 120, 12.5 μM [Ca2+]i): 0.71 ± 0.16 (n = 8)
Ki (V m 120, 12.5 μM [Ca2+]i, [A9C]ext, unit inferred, read-out: K i (Hill fit of inhibition)): 20 ± 8 µM
electric distance of inhibiting binding site (δ i) (Woodhull analysis, rounded): ~ 0.6
penetration into the pore length (voltage field) to reach inhibitory site (from δ i): approximately 60%
γ from Hill fit of [A9C]ext-inhibition relationships (rounded in Discussion): ≈ 1
SMILES: O=C(O)c1c2ccccc2cc2ccccc12 [A9C, Anthracene‐9‐carboxylic acid]

Reference: PMC4728427, “Mechanism of allosteric activation of TMEM16A/ANO1 channels by a commonly used chloride channel blocker” (British Journal of Pharmacology, 2016)
